For the assay, the system named is recombinant NL-Rluc virus. Briefly: Inhibition of HIV replication (NL-RLuc luciferase reporter virus in MT-2 cells). It counts as cell-based. Particulars: MT-2 cells infected with NL-RLuc virus, 5 days of incubation, luciferase readout, serum condition of the table not specified. (In general: A reporter such as luciferase makes a cellular process visible.)
The mark [1] stands for this setting: Human immunodeficiency virus 1, MT2, 120 h.

pEC50: −log10 of the molar value. Counter-ions that a name gives are not always drawn.

Experimental findings from patent publication US10065953B2, “Imidazo[1,2-A]pyridine derivatives for use as inhibitors of human immunodeficiency virus replication” (priority 2014, dated 2018) are described below.

Take `Cc1cc2nc(-c3cccc(-c4ccccc4)c3)cn2c(N2CCC(C)(C)CC2)c1[C@H](OC(C)(C)C)C(=O)O` [Example 1, (S)-2-(2-([1,1′-Biphenyl]-3-yl)-5-(4,4-dimethylpiperidin-1-yl)-7-methylimidazo[1,2-a]pyridin-6-yl)-2-(tert-butoxy)acetic Acid]: the negative-log EC50 (pEC50) – broadly, −log10 of the EC50, conventionally taken in molar units – under setting [1] is 7.29.

In the case of `Cc1ccc(-c2cccc(-c3cn4c(N5CCC(C)(C)CC5)c([C@H](OC(C)(C)C)C(=O)O)c(C)cc4n3)c2)cc1` [Example 2, (S)-2-(tert-butoxy)-2-(5-(4,4-dimethylpiperidin-1-yl)-7-methyl-2-(4′-methyl-[1,1′-biphenyl]-3-yl)imidazo[1,2-a]pyridin-6-yl)acetic Acid], the negative logarithm of the EC50 (pEC50) under setting [1] was 7.49.

In the case of `Cc1cc2nc(-c3cccc(-c4ccc(F)cc4)c3)cn2c(N2CCC(C)(C)CC2)c1[C@H](OC(C)(C)C)C(=O)O` [Example 3, (S)-2-(tert-Butoxy)-2-(5-(4,4-dimethylpiperidin-1-yl)-2-(4′-fluoro-[1,1′-biphenyl]-3-yl)-7-methylimidazo[1,2-a]pyridin-6-yl)acetic Acid], the pEC50 under setting [1] was 7.59.

As for `Cc1cc2nc(-c3cccc(-c4cccc(F)c4)c3)cn2c(N2CCC(C)(C)CC2)c1[C@H](OC(C)(C)C)C(=O)O` [Example 4, (S)-2-(tert-butoxy)-2-(5-(4,4-dimethylpiperidin-1-yl)-2-(3′-fluoro-[1,1′-biphenyl]-3-yl)-7-methylimidazo[1,2-a]pyridin-6-yl)acetic Acid], under setting [1], the negative-log EC50 (pEC50) is 7.68.

With `Cc1cc2nc(-c3cccc(-c4ccc(F)cc4F)c3)cn2c(N2CCC(C)(C)CC2)c1[C@H](OC(C)(C)C)C(=O)O` [Example 5, (S)-2-(tert-Butoxy)-2-(2-(2′,4′-difluoro-[1,1′-biphenyl]-3-yl)-5-(4,4-dimethylpiperidin-1-yl)-7-methylimidazo[1,2-a]pyridin-6-yl)acetic Acid], the pEC50 under setting [1] was 7.54.

Take `Cc1ccc(-c2cccc(-c3cn4c(N5CCC(C)(C)CC5)c([C@H](OC(C)(C)C)C(=O)O)c(C)cc4n3)c2)c(F)c1` [Example 6, (S)-2-(tert-Butoxy)-2-(5-(4,4-dimethylpiperidin-1-yl)-2-(2′-fluoro-4′-methyl-[1,1′-biphenyl]-3-yl)-7-methylimidazo[1,2-a]pyridin-6-yl)acetic Acid]: the pEC50 under setting [1] was 7.68.

For `Cc1cc2nc(-c3cccc(-c4cccc(C#N)c4)c3)cn2c(N2CCC(C)(C)CC2)c1[C@H](OC(C)(C)C)C(=O)O` [Example 7, (S)-2-(tert-Butoxy)-2-(2-(3′-cyano-[1,1′-biphenyl]-3-yl)-5-(4,4-dimethylpiperidin-1-yl)-7-methylimidazo[1,2-a]pyridin-6-yl)acetic Acid], the negative logarithm of the EC50 (pEC50) under setting [1] was 8.22.

On to `Cc1cc2nc(-c3cccc(-c4cnn(Cc5ccccc5)c4)c3)cn2c(N2CCC(C)(C)CC2)c1[C@H](OC(C)(C)C)C(=O)O` [Example 8, (S)-2-(2-(3-(1-Benzyl-1H-pyrazol-4-yl)phenyl)-5-(4,4-dimethylpiperidin-1-yl)-7-methylimidazo[1,2-a]pyridin-6-yl)-2-(tert-butoxy)acetic Acid], for which, under setting [1], the pEC50 is 7.66.

For the compound `Cc1cc2nc(-c3cccc(-c4cnn(C)c4)c3)cn2c(N2CCC(C)(C)CC2)c1[C@H](OC(C)(C)C)C(=O)O` [Example 9, (S)-2-(tert-Butoxy)-2-(5-(4,4-dimethylpiperidin-1-yl)-7-methyl-2-(3-(1-methyl-1H-pyrazol-4-yl)phenyl)imidazo[1,2-a]pyridin-6-yl)acetic Acid], the pEC50 under setting [1] is 8.22.

With `Cc1cc(-c2cccc(-c3cn4c(N5CCC(C)(C)CC5)c([C@H](OC(C)(C)C)C(=O)O)c(C)cc4n3)c2)n(C)n1` [Example 10, (S)-2-(tert-Butoxy)-2-(2-(3-(1,3-dimethyl-1H-pyrazol-5-yl)phenyl)-5-(4,4-dimethylpiperidin-1-yl)-7-methylimidazo[1,2-a]pyridin-6-yl)acetic Acid], under setting [1], the pEC50 is 8.15.

`Cc1cc2nc(-c3cccc(-c4cc(C(F)(F)F)nn4C)c3)cn2c(N2CCC(C)(C)CC2)c1[C@H](OC(C)(C)C)C(=O)O` [Example 11, (S)-2-(tert-Butoxy)-2-(5-(4,4-dimethylpiperidin-1-yl)-7-methyl-2-(3-(1-methyl-3-(trifluoromethyl)-1H-pyrazol-5-yl)phenyl)imidazo[1,2-a]pyridin-6-yl)acetic Acid]: the pEC50 under setting [1] is 7.68.

With `Cc1cc2nc(-c3cccc(-c4ccc(F)cc4)c3)cn2c(-c2ccc3c4c(ccnc24)CCO3)c1[C@H](OC(C)(C)C)C(=O)O` [Example 12, (2S)-2-(tert-Butoxy)-2-(5-(2,3-dihydropyrano[4,3,2-de]quinolin-7-yl)-2-(4′-fluoro-[1,1′-biphenyl]-3-yl)-7-methylimidazo[1,2-a]pyridin-6-yl)acetic Acid.TFA], the negative logarithm of the EC50 (pEC50) was 7.72.

Consider `Cc1cc2nc(-c3cccc(-c4ccc(F)cc4)c3)cn2c(-c2ccc3c4c(ccnc24)CCO3)c1[C@H](OC(C)(C)C)C(=O)O` [Example 13, (2S)-2-(tert-Butoxy)-2-(5-(2,3-dihydropyrano[4,3,2-de]quinolin-7-yl)-2-(4′-fluoro-[1,1′-biphenyl]-3-yl)-7-methylimidazo[1,2-a]pyridin-6-yl)acetic Acid.TFA], for which the pEC50 was 6.40.

`Cc1ccc(-c2c([C@H](OC(C)(C)C)C(=O)O)c(C)cc3nc(-c4cccc(-c5ccc(F)cc5)c4)cn23)cc1` [Example 14, (S)-2-(tert-butoxy)-2-(2-(4′-fluoro-[1,1′-biphenyl]-3-yl)-7-methyl-5-(p-tolyl)imidazo[1,2-a]pyridin-6-yl)acetic Acid]: the pEC50 under setting [1] was 7.70.

Take `Cc1cc2nc(-c3cccc(-c4ccc(F)cc4)c3)cn2c(-c2cc(F)c3c(c2C)CCCO3)c1[C@H](OC(C)(C)C)C(=O)O` [Example 15, (2S)-2-(tert-Butoxy)-2-(5-(8-fluoro-5-methylchroman-6-yl)-2-(4′-fluoro-[1,1′-biphenyl]-3-yl)-7-methylimidazo[1,2-a]pyridin-6-yl)acetic Acid]: the pEC50 is 6.76.

As for `Cc1cc2nc(-c3cccc(-c4ccc(F)cc4)c3)cn2c(-c2cc(F)c3c(c2C)CCCO3)c1[C@H](OC(C)(C)C)C(=O)O` [Example 16, (2S)-2-(tert-Butoxy)-2-(5-(8-fluoro-5-methylchroman-6-yl)-2-(4′-fluoro-[1,1′-biphenyl]-3-yl)-7-methylimidazo[1,2-a]pyridin-6-yl)acetic Acid], the pEC50 was 8.40.

Turning to `Cc1cc2nc(-c3cccc(-c4ccc(F)cc4)c3)cn2c(-c2ccc(F)cc2)c1[C@H](OC(C)(C)C)C(=O)O` [Example 17, (S)-2-(tert-Butoxy)-2-(2-(4′-fluoro-[1,1′-biphenyl]-3-yl)-5-(4-fluorophenyl)-7-methylimidazo[1,2-a]pyridin-6-yl)acetic Acid], the negative logarithm of the EC50 (pEC50) under setting [1] is 6.80.

In the case of `Cc1cc2nc(-c3cccc(-c4ccc(F)cc4)c3)cn2c(-c2ccc3c(c2)CCCO3)c1[C@H](OC(C)(C)C)C(=O)O` [Example 18, (S)-2-(tert-Butoxy)-2-(5-(chroman-6-yl)-2-(4′-fluoro-[1,1′-biphenyl]-3-yl)-7-methylimidazo[1,2-a]pyridin-6-yl)acetic Acid], the pEC50 under setting [1] was 8.15.

Take `Cc1cc2nc(-c3cccc(-c4ccc(F)cc4)c3)cn2c(-c2ccc3c(c2)C(C)(C)CCO3)c1[C@H](OC(C)(C)C)C(=O)O` [Example 19, (S)-2-(tert-Butoxy)-2-(5-(4,4-dimethylchroman-6-yl)-2-(4′-fluoro-[1,1′-biphenyl]-3-yl)-7-methylimidazo[1,2-a]pyridin-6-yl)acetic Acid]: the negative logarithm of the EC50 (pEC50) under setting [1] is 7.02.
